Consider eight compounds from US20220267352A1, “RAPAMYCIN ANALOGS AND USES THEREOF” (Anakuria Therapeutics, Inc., priority 2021, published 2022).

Common to all, as to assay type: cell-based
Test [1] deals with pS6K1 T389 and pAkt S473 in PC3 cells. Briefly: Western blot based pS6K1 and pAKT assay at 24 and 48 hour timepoints. On the procedure:
Example 57: Western Blot Based pS6K1 and pAKT Assay at 24 and 48 Hour Timepoints
Assay Protocol: • 1. Seed six well plate with 500,000 PC3 cells per well and incubate for 20˜24 hour. • 2. Add compounds into the cell plate. Incubate for 24 to 48 hours. • 4. Plate is placed on ice and the media is removed via aspiration. The wells are washed with 1 mL of 1x PBS and then fully aspirated. • 5. 110 μL of 1% Triton Lysis Buffer is added and each well is scraped vigorously. • 6. Cell homogenates are transferred to 1.5 mL eppendorf tubes on ice and spun down at 4° C. for 10 minutes at 10,000 rpm. • 7. Protein concentration of resulting cell lysates were quantified utilizing a Bradford assay and the samples run analyzed via Western blot on 4-12% Bis/Tris gels with 1×MES buffer. • 8. The gels were transferred onto membranes at 50V for 100 minutes, blocked with Odyssey Blocking buffer for 30 minutes then incubated overnight with primary antibody (pS6K1 T389 Rabbit or pAkt S473 Rabbit) overnight at 4° C. on a rotator. • 9. The membranes were washed 3× with TBS-T with a 5 minute incubation between each wash then incubated with secondary antibody (LiCor IRDye 800 Donkey Anti Rabbit) for at least 30 minutes. • 10. The membranes were washed 3× with TBS-T with a 5 minute incubation between each wash. • 11. The gels were then incubated for 5 minutes with PBS at room temperature then imaged using a Li-Cor.
Compounds that are not selective by comparing pS6K1 and pAKT IC50 by kinase assays are indicated by “NO” in the “mTORC1 selective @ 90 min” column of Table 4. […] Compounds that are not selective at the 24 hrs mark are indicated by “NO” in the “mTORC1 selective @ 24 hrs” column of Table 4. “N/A” stands for “not assayed” and “N/C” stands for “not calculated”.

Test [2] relates to p-p70 S6 Kinase (Thr389) in MCF-7 cells. Briefly: AlphaLISA Ultra pS6K1 assay. The conditions noted are these: Homo sapiens, 1.5 h; MCF7 cells, 90 min. The method, boiled down:
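MCF-7 cells seeded 20–24 h, given fresh medium 2 h, then treated with compounds 90 min (0.5% DMSO final). Cells lysed, lysates frozen at −80 °C, then Thr389-phosphorylated S6K1 detected by AlphaLISA Ultra with acceptor beads 2 h, then donor beads 2 h.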
Background: In Alpha technology, singlet oxygen from a donor bead excites a nearby acceptor bead.

Test [3] has as its system p-Akt 1/2/3 (Ser473) in MCF-7 cells. Briefly: AlphaLISA Ultra pAKT assay. The conditions noted are these: Homo sapiens, 1.5 h; MCF7 cells, 90 min. The method, boiled down: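 MCF-7 cells (16,000˜20,000 per well in 36 μL medium) were seeded in Corning 3701 plates for 20˜24 hour, refreshed with new medium for 90 minutes, then given 12 μL of 4× compound (0.5% final DMSO). Cells were lysed with 2× lysis buffer, and lysate was analyzed by AlphaLISA Ultra pAKT using acceptor and donor beads, read on an EnSpire reader.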

Test [4] concerns mTORC1 over mTORC2. Put plainly: mTORC1 over mTORC2 selectivity by comparing pS6K1 and pAKT IC50. Conditions: by comparing pS6K1 and pAKT IC50, 90 min. The method, boiled down:
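MCF-7 cells were treated with compounds (0.5% final DMSO) for 90 minutes in one protocol and 2 hours in the other, then lysed. Phospho-signal in lysates was read by bead-based donor/acceptor proximity assay. pS6K1 and pAKT IC50 values were compared to judge mTORC1 over mTORC2 selectivity, at 90 min and at 24 hrs.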

The pIC50 is the IC50 on a negative log10 scale, so that one unit is a factor of ten. A low value points to a large IC50.

Molecules are shown by their SMILES. pIC50: −log10 of the molar value.

On to `CO[C@@H]1/C(C)=C/[C@@H](C)C(=O)C[C@@H]([C@H](C)C[C@@H]2CC[C@@H](OP(C)(C)=O)[C@H](OC)C2)OC(=O)[C@@H]2CCCCN2C(=O)C(=O)[C@]2(O)O[C@@H](CC[C@H]2C)C[C@H](OCCOC2CCOCC2)/C(C)=C/C=C/C=C/[C@@H](C)C[C@@H](C)C(=O)[C@@H]1OC` [I-55, (1R,9S,12S,15R,16E,18R,19R,21R,23S,24E,26E,28E,30S,32S,35R)-12-[(1R)-2-[(1S,3R,4R)-4-dimethylphosphoryloxy-3-methoxy-cyclohexyl]-1-methyl-ethyl]-1-hydroxy-18,19-dimethoxy-15,17,21,23,29,35-hexamethyl-30-(2-tetrahydropyran-4-yloxyethoxy)-11,36-dioxa-4-azatricyclo[30.3.1.0^4,9]hexatriaconta-16,24,26,28-tetraene-2,3,10,14,20-pentone], for which, in test [1], the “mTORC1 selective @ 24 hrs” value is reported as “No”.

`CO[C@@H]1C[C@H](C[C@@H](C)[C@@H]2CC(=O)[C@H](C)/C=C(\C)[C@@H](O)[C@@H](OC)C(=O)[C@H](C)C[C@H](C)/C=C/C=C/C=C(\C)[C@@H](OCC3COCCO3)C[C@@H]3CC[C@@H](C)[C@@](O)(O3)C(=O)C(=O)N3CCCC[C@H]3C(=O)O2)CC[C@H]1OC(=O)NCCN1CCOCC1` (stereo partly drawn) [I-103, [(42S,44R,46R)-4-[(2R)-2-[(28E,30E,32E,33E,38R,39S,40R,41R,43S,45S,47S,48S,50R,51R,61R)-47-(1,4-dioxan-2-ylmethoxy)-50,61-dihydroxy-51-methoxy-38,39,40,41,52,53-hexamethyl-54,55,56,57,58-pentaoxo-76,77-dioxa-64-azatricyclohexatriaconta-28,30,32(52),33(53)-tetraen-48-yl]propyl]-46-methoxy-44-cyclohexyl] N-(2-morpholinoethyl)carbamate]: the figures for the pIC50 in test [2] and in test [3] were 8.00 to 9.00 and ≤ 6.00, respectively. Besides, the “mTORC1 selective @ 90 min” value in test [4] was “Yes”.

In the case of `CO[C@@H]1/C(C)=C/[C@@H](C)C(=O)C[C@@H]([C@H](C)C[C@@H]2CC[C@@H](OCCO)[C@H](OC)C2)OC(=O)[C@@H]2CCCCN2C(=O)C(=O)[C@]2(O)O[C@@H](CC[C@H]2C)CC(OCCOCCN)/C(C)=C/C=C/C=C/[C@@H](C)C[C@@H](C)C(=O)[C@@H]1OC` (stereo partly drawn) [I-23, (22E,24E,26E,27E,35R,36S,37R,38R,40S,42S,45S,46R,47R,56R)-44-[2-(2-aminoethoxy)ethoxy]-56-hydroxy-45-[(1R)-2-[(1S,3R,4R)-4-(2-hydroxyethoxy)-3-methoxy-cyclohexyl]-1-methyl-ethyl]-46,47-dimethoxy-35,36,37,38,48,49-hexamethyl-66,67-dioxa-58-azatricyclohexatriaconta-22,24,26(48),27(49)-tetraene-50,51,52,53,54-pentone], the pIC50 in test [2] was 6.00 to 7.00; in test [3], ≤ 6.00. Besides, the “mTORC1 selective @ 90 min” value in test [4] was “Yes”.

Take `CO[C@@H]1/C(C)=C/[C@@H](C)C(=O)C[C@@H]([C@H](C)C[C@@H]2CC[C@@H](OCCO)[C@H](OC)C2)OC(=O)[C@@H]2CCCCN2C(=O)C(=O)[C@]2(O)O[C@@H](CC[C@H]2C)CC(OCCOCCOC2COC2)/C(C)=C/C=C/C=C/[C@@H](C)C[C@@H](C)C(=O)[C@@H]1OC` (stereo partly drawn) [I-80, (1R,9S,12S,15R,16E,18R,19R,21R,23S,24E,26E,28E,32S,35R)-1-hydroxy-12-[(1R)-2-[(1S,3R,4R)-4-(2-hydroxyethoxy)-3-methoxy-cyclohexyl]-1-methyl-ethyl]-18,19-dimethoxy-15,17,21,23,29,35-hexamethyl-30-[2-[2-(oxetan-3-yloxy)ethoxy]ethoxy]-11,36-dioxa-4-azatricyclo[30.3.1.0^4,9]hexatriaconta-16,24,26,28-tetraene-2,3,10,14,20-pentone]: the values for the pIC50 in test [2] and in test [3] were 7.00 to 8.00 and ≤ 6.00, respectively. Also, in test [4], the “mTORC1 selective @ 90 min” value was “Yes”.

As to `COCCO[C@@H]1CC[C@@H](C[C@@H](C)[C@@H]2CC(=O)[C@H](C)/C=C(\C)[C@@H](OC)[C@@H](OC)C(=O)[C@H](C)C[C@H](C)/C=C/C=C/C=C(\C)C(OCCOCCOC3COC3)C[C@@H]3CC[C@@H](C)[C@@](O)(O3)C(=O)C(=O)N3CCCC[C@H]3C(=O)O2)C[C@H]1OC` (stereo partly drawn) [I-81, (1R,9S,12S,15R,16E,18R,19R,21R,23S,24E,26E,28E,32S,35R)-1-hydroxy-18,19-dimethoxy-12-[(1R)-2-[(1S,3R,4R)-3-methoxy-4-(2-methoxyethoxy)cyclohexyl]-1-methyl-ethyl]-15,17,21,23,29,35-hexamethyl-30-[2-[2-(oxetan-3-yloxy)ethoxy]ethoxy]-11,36-dioxa-4-azatricyclo[30.3.1.0^4,9]hexatriaconta-16,24,26,28-tetraene-2,3,10,14,20-pentone], the negative logarithm of the IC50 (pIC50) in test [2] is 7.00 to 8.00; in test [3], ≤ 6.00. For the same compound, the “mTORC1 selective @ 90 min” value in test [4] was “Yes”.

Turning to `CO[C@@H]1C[C@H](C[C@@H](C)[C@@H]2CC(=O)[C@H](C)/C=C(\C)[C@@H](O)[C@@H](OC)C(=O)[C@H](C)C[C@H](C)/C=C/C=C/C=C(\C)C(OCCOC3COC3)C[C@@H]3CC[C@@H](C)[C@@](O)(O3)C(=O)C(=O)N3CCCC[C@H]3C(=O)O2)CC[C@H]1O` (stereo partly drawn) [I-88, (23E,25E,27E,28E,32R,33S,34R,35R,37S,39S,41R,42S,44R,45R,54R)-44,54-dihydroxy-42-[(1R)-2-[(1S,3R,4R)-4-hydroxy-3-methoxy-cyclohexyl]-1-methyl-ethyl]-45-methoxy-32,33,34,35,46,47-hexamethyl-41-[2-(oxetan-3-yloxy)ethoxy]-65,66-dioxa-55-azatricyclohexatriaconta-23,25,27(46),28(47)-tetraene-48,49,50,51,52-pentone], the pIC50 was 8.00 to 9.00 in test [2] and ≤ 6.00 in test [3]. Also, in test [4], the “mTORC1 selective @ 90 min” value is “Yes”.

`CO[C@@H]1/C(C)=C/[C@@H](C)C(=O)C[C@@H]([C@H](C)C[C@@H]2CC[C@@H](OC)[C@H](OC)C2)OC(=O)[C@@H]2CCCCN2C(=O)C(=O)[C@]2(O)O[C@@H](CC[C@H]2C)CC(OCCOCCN(C)C)/C(C)=C/C=C/C=C/[C@@H](C)C[C@@H](C)C(=O)[C@@H]1OC` (stereo partly drawn) [I-95, (25E,27E,29E,30E,36R,37S,38R,39R,41S,43S,46S,47R,48R,57R)-46-[(1R)-2-[(1S,3R,4R)-3,4-dimethoxycyclohexyl]-1-methyl-ethyl]-45-[2-[2-(dimethylamino)ethoxy]ethoxy]-57-hydroxy-47,48-dimethoxy-36,37,38,39,49,50-hexamethyl-66,67-dioxa-58-azatricyclohexatriaconta-25,27,29(49),30(50)-tetraene-51,52,53,54,55-pentone]: the pIC50 is 6.00 to 7.00 in test [2] and ≤ 6.00 in test [3]. Further, the “mTORC1 selective @ 90 min” value in test [4] was “Yes”.

For the compound `CO[C@@H]1C[C@H](C[C@@H](C)[C@@H]2CC(=O)[C@H](C)/C=C(\C)[C@@H](O)[C@@H](OC)C(=O)[C@H](C)C[C@H](C)/C=C/C=C/C=C(\C)C(OCC3COCCO3)C[C@@H]3CC[C@@H](C)[C@@](O)(O3)C(=O)C(=O)N3CCCC[C@H]3C(=O)O2)CC[C@H]1OCCCN1CCOCC1` (stereo partly drawn) [I-12, (28E,30E,32E,33E,39R,40S,41R,42R,44S,46S,49S,51R,52R,61R)-48-(1,4-dioxan-2-ylmethoxy)-51,61-dihydroxy-52-methoxy-49-[(1R)-2-[(1S,3R,4R)-3-methoxy-4-(3-morpholinopropoxy)cyclohexyl]-1-methyl-ethyl]-39,40,41,42,53,54-hexamethyl-74,75-dioxa-63-azatricyclohexatriaconta-28,30,32(53),33(54)-tetraene-55,56,57,58,59-pentone], the results for the pIC50 in test [2] and in test [3] were > 9.00 and ≤ 6.00, respectively. Also, in test [4], the “mTORC1 selective @ 90 min” value is given as “Yes”.
